Molecular target: Prothrombin (Homo sapiens, UniProt P00734)
Experiment: Compound was evaluated for its binding affinity to the thrombin

| Structure (SMILES) | Ki [nM] |
| --- | --- |
| NCCCCC(NC(=O)C1C=CCn2c(=O)n(CC(c3ccccc3)c3ccccc3)c(=O)n21)C(=O)C(=O)NCCc1ccc(C(N)=O)cc1 (stereo not drawn) | 0.3 |
| C=CCC1(CC=C)C(=O)N2CC(C)=CC(C(=O)NC(CCCCN)C(=O)C(=O)NCCc3ccc(C(N)=O)cc3)N2C1=O (stereo not drawn) | 18 |
| CCC1(N)C(=O)N2C(Cc3ccccc3)C=CC(C(=O)NC(CCCCN)C(=O)C(N)=O)N2C1=O (stereo not drawn) | 4.33 |

Second part, the molecule after the results:

| Ki [nM] | Structure (SMILES) |
| --- | --- |
| 0.2 | CCCCC1(CCCC)C(=O)N2CC(C)=CC(C(=O)NC(CCCCN)C(=O)C(=O)NCCc3ccc(C(N)=O)cc3)N2C1=O (stereo not drawn) |
| 0.035 | CC1=CC(C(=O)NC(CCCCN)C(=O)C(=O)NCCc2ccc(C(N)=O)cc2)n2c(=O)n(CC(c3ccccc3)c3ccccc3)c(=O)n2C1 (stereo not drawn) |
| 1.89 | CC1=CC(C(=O)NC(CCCCN)C(=O)C(=O)NCCc2ccc(C(N)=O)cc2)N2C(=O)C(Cc3ccccc3)(Cc3ccccc3)C(=O)N2C1 (stereo not drawn) |
| 1.58 | CC1=CC(C(=O)NC(CCCCN)C(=O)C(=O)NCc2ccc(C(N)=O)cc2)N2C(=O)C(N)(Cc3ccccc3)C(=O)N2C1 (stereo not drawn) |
| 5.09 | CC1=CC(C(=O)NC(CCCCN)C(=O)C(=O)NCCc2ccc(C(N)=O)cc2)N2C(=O)C(CC(C)C)(CC(C)C)C(=O)N2C1 (stereo not drawn) |

Molecular target: Kallikrein-1 (Homo sapiens, UniProt P06870)
Sequence (P06870 whole entry): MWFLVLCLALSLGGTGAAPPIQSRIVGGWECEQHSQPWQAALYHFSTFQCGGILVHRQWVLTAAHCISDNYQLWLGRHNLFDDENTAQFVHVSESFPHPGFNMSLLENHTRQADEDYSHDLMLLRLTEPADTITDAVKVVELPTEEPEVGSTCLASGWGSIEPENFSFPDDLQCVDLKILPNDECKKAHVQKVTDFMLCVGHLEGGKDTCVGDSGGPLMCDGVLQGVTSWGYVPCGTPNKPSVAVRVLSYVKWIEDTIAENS
Experiment: Compound was evaluated for its inhibitory activity against Kallikrein

| Ki [nM] | Structure (SMILES) |
| --- | --- |
| 21 | COC(=O)C1C(CCc2ccccc2)=CC(C(=O)NC(CCCCN)C(=O)C(=O)NCCc2ccc(C(N)=O)cc2)n2c(=O)n(Cc3cc(F)ccc3F)c(=O)n21 (stereo not drawn) |
| 31 | CC1(C)C2CC3C(=CC(C(=O)NC(CCCCN)C(=O)C(=O)NCCc4ccc(C(N)=O)cc4)n4c(=O)n(Cc5ccc(Cl)c(Cl)c5)c(=O)n43)C1C2 (stereo not drawn) |

Molecular target: Serine protease 1 (Homo sapiens, UniProt P07477)
Sequence (P07477 whole entry): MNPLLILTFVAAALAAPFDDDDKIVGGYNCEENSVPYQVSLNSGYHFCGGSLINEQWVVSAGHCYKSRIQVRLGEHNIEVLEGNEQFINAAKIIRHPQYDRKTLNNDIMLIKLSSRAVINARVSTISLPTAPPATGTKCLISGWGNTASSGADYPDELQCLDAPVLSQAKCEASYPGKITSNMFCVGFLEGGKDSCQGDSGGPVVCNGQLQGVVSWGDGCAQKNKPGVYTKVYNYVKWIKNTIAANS
Experiment: Compound was evaluated for its binding affinity to the trypsin enzyme

| Ki [nM] | Structure (SMILES) |
| --- | --- |
| 0.43 | CC(C)CCn1c(=O)n2n(c1=O)C(C(=O)NC(CCCCN)C(=O)C(=O)NCCc1ccc(C(N)=O)cc1)C=CC2CC(C)C (stereo not drawn) |
| 0.28 | COc1ccc(-n2c(=O)n3n(c2=O)C(C(=O)NC(CCCCN)C(=O)C(=O)NCCc2ccc(C(N)=O)cc2)C=CC3CC(C)C)cc1 (stereo not drawn) |

Molecular target: Tryptase (Homo sapiens, UniProt Q9BZJ3+Q15661+Q9NRR2)
Experiment: Compound was evaluated for its binding affinity to the tryptase
Format: protein assay

| Ki [nM] | Structure (SMILES) |
| --- | --- |
| 5.9 | CC1=CC(C(=O)NC(CCCCN)C(=O)C(=O)NCCc2ccc(C(N)=O)cc2)n2c(=O)n(C(c3ccccc3)c3ccccc3)c(=O)n2C1 (stereo not drawn) |

From ChEMBL document CHEMBL1130946, “Highly efficient and versatile synthesis of libraries of constrained beta-strand mimetics” (Bioorg Med Chem Lett, 1998)
